Here are results for 19 molecules from US20100160335A1, “PYRIDAZINONE DERIVATIVE AND PDE INHIBITOR CONTAINING THE SAME AS ACTIVE INGREDIENT” (KYORIN PHARMACEUTICAL CO., LTD., priority 2007, published 2010).

pIC50: −log10 of the molar value.

The target in test [1] is T1, PDE3A catalytic domain (PDE3Acat) (Homo sapiens, UniProt Q14432).
T1 construct: made in house; host or cells: Sf9 insect cells (baculovirus, Bac-to-Bac / Gateway)
The test can be described thus: Phosphodiesterase inhibitory activity, PDE3 ([3H]cAMP, recombinant enzyme). It counts as biochemical. Particulars: 30° C., 20 minutes, read-out: IC50(μmol/L) PDE3.

The test system of test [2] is histamine-induced bronchoconstriction in guinea pigs. The test can be described thus: Histamine-induced bronchoconstriction reaction in guinea pigs. It counts as in vivo. Particulars: guinea pig, measured 30 seconds after administration; for inhibition in vivo at 0.3 mg/kg / inhibition in vivo at 0.1 mg/kg: Cavia porcellus, iv, 0.5 min, read-out: Inhibition rate (histamine-induced bronchoconstriction); for inhibition in vivo at 0.1 mg/kg: compound 0.1 mg/kg, i.v. (values in [ ]). As for the experimental part:
Guinea pigs were anesthetized with pentobarbital (30 mg/kg, i.p.). A cannula for intravenous administration was inserted into the left external jugular vein, a cannula for collecting blood and measuring blood pressure was inserted into the right internal carotid artery, and a tracheal cannula was inserted into the trachea. The guinea pigs were maintained on artificial respiration under the conditions of 60 times/min and 10 mL/kg/stroke. The airflow from the side branch of the tracheal cannula was measured by a bronchospasm transducer (Ugo-Basile) and recorded on a computer via Power Lab (ADInstruments Japan). The guinea pigs were immobilized with gallamine (10 mg/kg, i.v.), and histamine (12.5 μg/kg, i.v.) was administered at 10-minute intervals. After the histamine-induced bronchoconstriction became stable, the compound (0.3 mg/kg, i.v.) was administered. The histamine-induced bronchoconstriction reaction was measured 30 seconds after the compound administration to examine the bronchoconstriction inhibitory activity of the compound. The bronchoconstriction was recorded as the airflow value, and the results were represented by the ratio of the maximum value of the histamine- induced airflow 30 seconds after the administration to the maximum value of the airflow before the administration. Also, the test compounds dissolved in DMSO were used. Further, the indications were as follows: inhibition rate≧90% (+++), 90%>inhibition rate≧80% (++), and 80%>inhibition rate≧70% (+). [ ] means the results in the case of 0.1 mg/kg, i.v.

The target of test [3] is T2, PDE4Bcat (Homo sapiens, UniProt Q07343).
T2 construct: made in house; host or cells: Sf9 insect cells (baculovirus, Bac-to-Bac / Gateway)
T2 sequence (Q07343 330-659 limits assumed): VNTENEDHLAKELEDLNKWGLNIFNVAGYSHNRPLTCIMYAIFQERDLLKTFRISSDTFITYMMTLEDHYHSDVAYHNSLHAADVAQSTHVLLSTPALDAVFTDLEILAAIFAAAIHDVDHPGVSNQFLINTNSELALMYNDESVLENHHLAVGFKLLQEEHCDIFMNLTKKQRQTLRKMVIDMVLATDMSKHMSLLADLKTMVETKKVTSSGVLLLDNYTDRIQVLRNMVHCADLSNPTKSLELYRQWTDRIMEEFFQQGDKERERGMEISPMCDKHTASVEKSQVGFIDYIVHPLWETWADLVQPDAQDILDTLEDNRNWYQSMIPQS
As to the kind of experiment: Phosphodiesterase inhibitory activity, PDE4 ([3H]cAMP, recombinant enzyme). It counts as biochemical. The conditions noted are these: 30° C., 20 minutes, read-out: IC50(μmol/L) PDE4.

T1 sequence (Q14432 674-1093 limits assumed): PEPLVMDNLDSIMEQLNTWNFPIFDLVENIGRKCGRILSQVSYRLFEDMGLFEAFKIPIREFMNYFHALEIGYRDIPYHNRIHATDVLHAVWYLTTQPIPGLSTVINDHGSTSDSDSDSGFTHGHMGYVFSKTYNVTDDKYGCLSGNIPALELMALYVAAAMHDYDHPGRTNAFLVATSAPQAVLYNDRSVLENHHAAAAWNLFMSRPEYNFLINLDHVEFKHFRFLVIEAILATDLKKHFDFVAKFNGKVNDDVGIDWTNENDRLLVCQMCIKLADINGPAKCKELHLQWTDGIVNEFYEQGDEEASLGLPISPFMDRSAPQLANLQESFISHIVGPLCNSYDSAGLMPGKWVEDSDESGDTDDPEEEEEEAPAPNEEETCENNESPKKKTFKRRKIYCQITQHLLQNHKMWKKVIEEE

Consider `CCc1ccc2c(C3=NN(CCCCOc4ccc(C5=NNC(=O)CC5C)cc4)C(=O)CC3C)ccc(OC)c2n1` (single isomer, unassigned) [Example 342, 6-(2-Ethyl-8-methoxyquinolin-5-yl)-5-methyl-2-[4-[4-(4-methyl-6-oxo-1,4,5,6-tetrahydropyridazin-3-yl)phenoxy]butyl]-4,5-dihydro-2H-pyridazin-3-one], for which the pIC50 in test [1] was greater than 7.00; in test [3], 6.00 to 7.00. The “Inhibition rate (histamine-induced bronchoconstriction)” value in test [2] (compound 0.3 mg/kg, i.v.) is “+++ (inhibition rate≧90% (+++))”.

As for `COc1ccc(C2=NN(CCCCOc3ccc(C4=NNC(=O)CC4C)cc3)C(=O)CC2C)c2ccc(C)nc12` (stereo not drawn) [Example 267, 6-(8-Methoxy-2-methylquinolin-5-yl)-5-methyl-2-[4-[4-(4-methyl-6-oxo-1,4,5,6-tetrahydropyridazin-3-yl)phenoxy]butyl]-4,5-dihydro-2H-pyridazin-3-one], the pIC50 in test [1] was 6.00 to 7.00; in test [3] it was greater than 7.00. In addition, in test [2] (compound 0.3 mg/kg, i.v.), the inhibition in vivo at 0.3 mg/kg is no less than 90%.

As to `COc1ccc(C2=NN(CCCCOc3ccc(C4=NNC(=O)CC4C)cc3)C(=O)CC2C)c2ccc(C(C)C)nc12` (stereo not drawn) [Example 269, 6-(8-Methoxy-2-isopropylquinolin-5-yl)-5-methyl-2-[4-[4-(4-methyl-6-oxo-1,4,5,6-tetrahydropyridazin-3-yl)phenoxy]butyl]-4,5-dihydro-2H-pyridazin-3-one], the pIC50 is greater than 7.00 in test [1] and 6.00 to 7.00 in test [3]. Also, the inhibition in vivo at 0.1 mg/kg in test [2] fell in the range of 80 to 90%.

Consider `COc1ccc(-c2ccc(=O)n(CCCCOc3ccc(C4=NNC(=O)CC4)cc3F)n2)c2ccc(C)nc12` [Example 272, 2-[4-[2-Fluoro-4-(6-oxo-1,4,5,6-tetrahydropyridazin-3-yl)phenoxy]butyl}-6-(8-methoxy-2-methylquinolin-5-yl)-2H-pyridazin-3-one], for which the figures for the pIC50 in test [1] and in test [3] were 6.00 to 7.00 and greater than 7.00, respectively. Besides, the inhibition in vivo at 0.3 mg/kg in test [2] (compound 0.3 mg/kg, i.v.) lay in the range of 70 to 80%.

For `COc1ccc(-c2ccc(=O)n(CCCCOc3ccc(C4=NNC(=O)CC4C)c(F)c3F)n2)c2ccc(C)nc12` (stereo not drawn) [Example 273, 2-[4-[2,3-Difluoro-4-(4-methyl-6-oxo-1,4,5,6-tetrahydropyridazin-3-yl)phenoxy]butyl]-6-(8-methoxy-2-methylquinolin-5-yl)-2H-pyridazin-3-one], the pIC50 in test [1] and in test [3] was greater than 7.00 throughout. Besides, the inhibition in vivo at 0.3 mg/kg in test [2] (compound 0.3 mg/kg, i.v.) is no less than 90%.

`COc1ccc(-c2ccc(=O)n(CCCCOc3ccc(C4=NNC(=O)C4(C)C)c(F)c3F)n2)c2nc(C(F)(F)F)[nH]c12` [Example 277, 2-[4-[2,3-Difluoro-4-(4,4-dimethyl-5-oxo-4,5-dihydro-1H-pyrazol-3-yl)phenoxy]butyl]-6-(4-methoxy-2-trifluoromethyl-1H-benzimidazol-7-yl)-2H-pyridazin-3-one]: the values for the pIC50 in test [1] and in test [3] were greater than 7.00 and 5.00 to 6.00, respectively. In addition, the inhibition in vivo at 0.3 mg/kg in test [2] (compound 0.3 mg/kg, i.v.) is 80 to 90%.

For the molecule `COc1ccc(-c2ccc(=O)n(CCCCOc3ccc(C4=NNC(=O)CC4)c(F)c3F)n2)c2nc(C(F)(F)F)[nH]c12` [Example 278, 2-[4-[2,3-Difluoro-4-(6-oxo-1,4,5,6-tetrahydropyridazin-3-yl)phenoxy]butyl]-6-(4-methoxy-2-trifluoromethyl-1H-benzimidazol-7-yl)-2H-pyridazin-3-one], the pIC50 in test [1] was greater than 7.00; in test [3], 5.00 to 6.00. Further, the inhibition in vivo at 0.3 mg/kg in test [2] (compound 0.3 mg/kg, i.v.) is no less than 90%.

`COc1ccc(-c2ccc(=O)n(CCCCOc3ccc(C4=NNC(=O)CC4C)c(F)c3F)n2)c2nc(C(F)(F)F)[nH]c12` (stereo not drawn) [Example 279, 2-[4-[2,3-Difluoro-4-(4-methyl-6-oxo-1,4,5,6-tetrahydropyridazin-3-yl)phenoxy]butyl]-6-(4-methoxy-2-trifluoromethyl-1H-benzimidazol-7-yl)-2H-pyridazin-3-one]: the pIC50 is greater than 7.00 in test [1] and 6.00 to 7.00 in test [3]. Also, the inhibition in vivo at 0.3 mg/kg in test [2] (compound 0.3 mg/kg, i.v.) is no less than 90%.

`CCc1ccc2c(-c3ccc(=O)n(CCCCOc4ccc(C5=NNC(=O)CC5C)cc4F)n3)ccc(OC)c2n1` (stereo not drawn) [Example 287, 6-(2-Ethyl-8-methoxyquinolin-5-yl)-2-[4-[2-fluoro-4-(4-methyl-6-oxo-1,4,5,6-tetrahydropyridazin-3-yl)phenoxy]butyl]-2H-pyridazin-3-one]: the pIC50 in test [1] and in test [3] was greater than 7.00 each time. Besides, the inhibition in vivo at 0.3 mg/kg in test [2] (compound 0.3 mg/kg, i.v.) was no less than 90%.

Regarding `CCc1ccc2c(-c3ccc(=O)n(CCCCOc4ccc(C5=NNC(=O)CC5C)cc4OC)n3)ccc(OC)c2n1` (stereo not drawn) [Example 288, 6-(2-Ethyl-8-methoxyquinolin-5-yl)-2-[4-[2-methoxy-4-(4-methyl-6-oxo-1,4,5,6-tetrahydropyridazin-3-yl)phenoxy]butyl]-2H-pyridazin-3-one], the pIC50 in test [1] and in test [3] was 6.00 to 7.00 throughout. For the same molecule, the inhibition in vivo at 0.3 mg/kg in test [2] (compound 0.3 mg/kg, i.v.) lay within 80 to 90%.

In the case of `CCc1ccc2c(-c3ccc(=O)n(CCCCOc4ccc(C5=NNC(=O)C5(C)C)c(F)c4F)n3)ccc(OC)c2n1` [Example 290, 6-(2-Ethyl-8-methoxyquinolin-5-yl)-2-[4-[2,3-difluoro-4-(4,4-dimethyl-5-oxo-4,5-dihydro-1H-pyrazol-3-yl)phenoxy]butyl]-2H-pyridazin-3-one], the pIC50 in test [1] and in test [3] was greater than 7.00 each time. In addition, the inhibition in vivo at 0.3 mg/kg in test [2] (compound 0.3 mg/kg, i.v.) was no less than 90%.

On to `CCc1ccc2c(-c3ccc(=O)n(CCCCOc4ccc(C5=NNC(=O)CC5)cc4OC)n3)ccc(OC)c2n1` [Example 291, 6-(2-Ethyl-8-methoxyquinolin-5-yl)-2-[4-[2-methoxy-4-(6-oxo-1,4,5,6-tetrahydropyridazin-3-yl)phenoxy]butyl]-2H-pyridazin-3-one], for which the pIC50 in test [1] was 5.00 to 6.00; in test [3], 6.00 to 7.00. Also, in test [2] (compound 0.3 mg/kg, i.v.), the inhibition in vivo at 0.3 mg/kg lay in the range of 70 to 80%.

In the case of `CCc1ccc2c(C3=NN(CCCOc4ccc(C5=NNC(=O)CC5C)cc4)C(=O)CC3C)ccc(OC)c2n1` (stereo not drawn) [Example 292], the figures for the pIC50 in test [1] and in test [3] were 5.00 to 6.00 and 6.00 to 7.00, respectively. Further, the inhibition in vivo at 0.3 mg/kg in test [2] (compound 0.3 mg/kg, i.v.) lay in the range of 80 to 90%.

`CCc1ccc2c(C3=NN(CCCCOc4ccc(C5=NNC(=O)CC5C)cc4OC)C(=O)CC3C)ccc(OC)c2n1` (stereo not drawn) [Example 293, 6-(2-Ethyl-8-methoxyquinolin-5-yl)-5-methyl-2-[4-[2-methoxy-4-(4-methyl-6-oxo-1,4,5,6-tetrahydropyridazin-3-yl)phenoxy]butyl]-4,5-dihydro-2H-pyridazin-3-one]: the pIC50 in test [1] and in test [3] was 6.00 to 7.00 each time. Besides, the inhibition in vivo at 0.1 mg/kg in test [2] was in the range of 70 to 80%.

On to `CCc1ccc2c(C3=NN(CCCCOc4ccc(C5=NNC(=O)CC5C)cc4F)C(=O)CC3C)ccc(OC)c2n1` (stereo not drawn) [Example 294, 6-(2-Ethyl-8-methoxyquinolin-5-yl)-5-methyl-2-[4-[2-fluoro-4-(4-methyl-6-oxo-1,4,5,6-tetrahydropyridazin-3-yl)phenoxy]butyl]-4,5-dihydro-2H-pyridazin-3-one], for which the pIC50 in test [1] and in test [3] was greater than 7.00 throughout. In test [2], the inhibition in vivo at 0.1 mg/kg is no less than 90%.

As for `CCc1ccc2c(C3=NN(CCCCOc4ccc(C5=NNC(=O)CC5C)c(F)c4F)C(=O)CC3C)ccc(OC)c2n1` (stereo not drawn) [Example 295, 6-(2-Ethyl-8-methoxyquinolin-5-yl)-5-methyl-2-[4-[2,3-difluoro-4-(4-methyl-6-oxo-1,4,5,6-tetrahydropyridazin-3-yl)phenoxy]butyl]-4,5-dihydro-2H-pyridazin-3-one], the pIC50 in test [1] and in test [3] was greater than 7.00 in each case. In test [2], the inhibition in vivo at 0.1 mg/kg was 80 to 90%.

For `COc1ccc(-c2ccc(=O)n(CCCCOc3ccc(C4=NNC(=O)CC4C)c(F)c3F)n2)n2cc(C(F)(F)F)nc12` (stereo not drawn) [Example 336, 2-[4-[2,3-Difluoro-4-(4-methyl-6-oxo-1,4,5,6-tetrahydropyridazin-3-yl)phenoxy]butyl]-6-(8-methoxy-2-trifluoromethylimidazo[1,2-a]pyridin-5-yl)-2H-pyridazin-3-one], the pIC50 in test [1] is greater than 7.00; in test [3] it was 6.00 to 7.00.

Regarding `COc1ccc(-c2ccc(=O)n(CCCCOc3ccc(C4=NNC(=O)CC4)c(F)c3F)n2)n2cc(C(F)(F)F)nc12` [Example 337, 2-[4-[2,3-Difluoro-4-(6-oxo-1,4,5,6-tetrahydropyridazin-3-yl)phenoxy]butyl]-6-(8-methoxy-2-trifluoromethylimidazo[1,2-a]pyridin-5-yl)-2H-pyridazin-3-one], the pIC50 in test [1] and in test [3] was 6.00 to 7.00 in each case.

For the molecule `COc1ccc(-c2ccc(=O)n(CCCCOc3ccc(C4=NNC(=O)C4(C)C)c(F)c3F)n2)n2cc(C(F)(F)F)nc12` [Example 338, 2-[4-[2,3-Difluoro-4-(4,4-dimethyl-5-oxo-4,5-dihydro-1H-pyrazol-3-yl)phenoxy]butyl]-6-(8-methoxy-2-trifluoromethylimidazo[1,2-a]pyridin-5-yl)-2H-pyridazin-3-one], the pIC50 in test [1] and in test [3] was 6.00 to 7.00 throughout.
